Data as given in patent US9096639B2, “17-hydroxy-17-pentafluorethyl-estra-4,9(10)-dien-11-acyloxyalkylene phenyl derivatives, methods for the production thereof and use thereof for treating diseases” (Bayer Intellectual Property GmbH, priority 2009, dated 2015).
Where two headings read alike, the source gives them in different places.

Tests used:
[1] = Determination of hydrolytic stability (5:1 dioxane/buffer, HPLC); format: physicochemical; conditions: 5:1 dioxane/buffer solution, test ended after 24 or 192 hours, read-out: Hydrolytic stability t1/2
Protocol: The ester to be analyzed was dissolved in each case in a 5:1 mixture of dioxane and buffer solution (pH 1.2, pH 5.0 or pH 8.0) at 23° C. At different times, the content of ester and hydrolysis products (8S,11R,13S,14S,1 7S)-17-hydroxy-11-[4-((R)-1-hydroxyethyl)phenyl]-13-methyl-17-pentafluoroethyl-1,2,6,7,8,11,12,13,14,15,16,17-dodecahydrocyclopenta[a]phenanthren-3-one and/or (8S,11R,13S,14S,17S)-17-hydroxy-11-[4-((S)-1-hydroxyethyl)phenyl]-1 3-methyl-17-pentafluoroethyl-1,2,6,7,8,11,12,13,14,15,16,17-dodecahydrocyclopenta[a]phenanthren-3-one was determined by HPLC. The test was ended after 24 hours or 192 hours.

[2] = molecular target: T1, human progesterone receptor A (Homo sapiens, UniProt P06401); experiment: Progesterone receptor transactivation test in stably transfected SK-N-MC cells (PR-A, MMTV-LUC reporter); format: cell-based; conditions: 0.1 nmol/l promegestone, 24 hours, read-out: PR-A IC50 (antagonistic potency)
T1 construct: expressed in transfected cells; host or cells: SK-N-MC human neuroblastoma cells, stably transfected with pRChPR-A-neo and pMMTV-LUC
T1 sequence (P06401 1-769 isoform P06401-2): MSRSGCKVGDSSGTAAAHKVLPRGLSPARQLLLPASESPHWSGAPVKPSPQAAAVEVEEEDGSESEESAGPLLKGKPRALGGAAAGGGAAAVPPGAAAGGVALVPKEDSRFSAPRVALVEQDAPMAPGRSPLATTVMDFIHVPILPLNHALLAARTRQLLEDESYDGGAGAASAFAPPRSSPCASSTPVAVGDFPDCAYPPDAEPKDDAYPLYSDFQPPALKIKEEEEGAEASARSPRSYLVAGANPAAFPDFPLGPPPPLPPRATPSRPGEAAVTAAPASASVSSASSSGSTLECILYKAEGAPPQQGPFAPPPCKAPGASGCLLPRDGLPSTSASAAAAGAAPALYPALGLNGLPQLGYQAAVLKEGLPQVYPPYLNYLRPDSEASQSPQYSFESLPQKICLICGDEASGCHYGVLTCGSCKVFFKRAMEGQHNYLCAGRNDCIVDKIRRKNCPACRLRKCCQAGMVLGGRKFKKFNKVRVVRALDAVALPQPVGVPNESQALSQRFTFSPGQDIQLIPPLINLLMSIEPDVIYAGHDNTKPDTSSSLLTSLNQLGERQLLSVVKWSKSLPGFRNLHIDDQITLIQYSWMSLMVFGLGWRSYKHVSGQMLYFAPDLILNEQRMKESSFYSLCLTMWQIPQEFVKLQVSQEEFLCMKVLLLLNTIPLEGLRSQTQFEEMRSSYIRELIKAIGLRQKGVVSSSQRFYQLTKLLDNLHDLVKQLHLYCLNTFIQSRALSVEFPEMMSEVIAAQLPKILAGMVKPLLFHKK
Protocol: (§1) Progesterone receptor-antagonistic action in stable transfectants of human neuroblastoma cells (SK-N-MC cells) with the human progesterone A or progesterone B receptor and an MN-LUC reporter construct SK-N-MC cells (human neuroblastoma cells) which have been stably transfected with plasmids expressing the human progesterone receptor B (pRChPR-B-neo) or the human progesterone receptor A (pRChPR-A-neo) and a reporter construct (pMMTV-LUC) were incubated for 24 hours either in the absence (negative control) or in the presence of ascending amounts of the particular test compound (0.01 nmol/l, 0.1 nmol/l, 1 […], 100 nmol/l and […]), in order to determine the agonistic efficacy. As a positive control of the reporter gene induction, the cells were treated with the synthetic gestagen promegestone (0.01 nmol/l, 0.1 nmol/l, 1 nmol/l, 10 nmol/l, 100 nmol/l and […]). To determine the antagonistic activity, the cells were treated with 0.1 nmol/l promegestone and additionally with ascending amounts of the particular test compound (0.01 nmol/l, 0.1 nmol/l, 1 nmol/l, 10 nmol/l, 100 nmol/l and […]). The activity of the reporter gene LUC (LUC=luciferase) was determined in the cell lysates and measured as RLU (relative light units). All measurements are reported as % efficacy and as EC50 and IC50 concentrations.

[3] = molecular target: T2, human progesterone receptor B (Homo sapiens, UniProt P06401); experiment: Progesterone receptor transactivation test in stably transfected SK-N-MC cells (PR-B, MMTV-LUC reporter); format: cell-based; conditions: 0.1 nmol/l promegestone, 24 hours, read-out: PR-B IC50 (antagonistic potency)
T2 construct: expressed in transfected cells; host or cells: SK-N-MC human neuroblastoma cells, stably transfected with pRChPR-B-neo and pMMTV-LUC
T2 sequence (P06401 1-933): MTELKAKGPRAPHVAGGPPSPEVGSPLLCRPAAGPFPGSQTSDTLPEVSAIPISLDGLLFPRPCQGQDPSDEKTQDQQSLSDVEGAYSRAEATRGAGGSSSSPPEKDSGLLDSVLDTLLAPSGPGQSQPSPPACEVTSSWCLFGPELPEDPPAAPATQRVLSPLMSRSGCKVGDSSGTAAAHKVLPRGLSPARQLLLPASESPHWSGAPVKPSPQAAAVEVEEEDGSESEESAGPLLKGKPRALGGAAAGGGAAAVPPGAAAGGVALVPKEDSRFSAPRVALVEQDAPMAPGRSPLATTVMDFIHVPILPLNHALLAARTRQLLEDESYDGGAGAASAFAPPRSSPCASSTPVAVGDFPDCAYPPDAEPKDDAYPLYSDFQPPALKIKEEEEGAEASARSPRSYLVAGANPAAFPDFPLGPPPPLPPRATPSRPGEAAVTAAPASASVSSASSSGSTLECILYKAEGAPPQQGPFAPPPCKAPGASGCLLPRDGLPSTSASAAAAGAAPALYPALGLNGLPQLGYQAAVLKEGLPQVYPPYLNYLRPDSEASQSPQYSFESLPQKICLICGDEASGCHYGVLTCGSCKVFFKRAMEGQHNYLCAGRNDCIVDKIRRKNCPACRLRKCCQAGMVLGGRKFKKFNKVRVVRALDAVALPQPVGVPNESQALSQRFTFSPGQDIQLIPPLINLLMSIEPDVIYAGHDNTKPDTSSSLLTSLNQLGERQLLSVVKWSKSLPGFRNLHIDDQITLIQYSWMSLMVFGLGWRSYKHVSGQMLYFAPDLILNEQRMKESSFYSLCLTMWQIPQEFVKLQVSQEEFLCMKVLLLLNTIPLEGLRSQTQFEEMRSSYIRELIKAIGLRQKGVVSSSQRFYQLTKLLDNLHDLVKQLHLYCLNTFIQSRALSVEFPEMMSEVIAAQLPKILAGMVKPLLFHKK
Protocol: as §1

| Structure (SMILES) | half-life ([1]; pH = 1.2, 23° C.) [h] | half-life ([1]; pH = 5.0, 23° C.) [h] | half-life ([1]; pH = 8.0, 23° C.) [h] | IC50 [2] [nM] | IC50 [3] [nM] |
| --- | --- | --- | --- | --- | --- |
| CC(=O)O[C@H](C)c1ccc([C@H]2C[C@@]3(C)C(CC[C@@]3(O)C(F)(F)C(F)(F)F)C3CCC4=CC(=O)CCC4=C32)cc1 (mixture of isomers) [Example 1, acetic acid (RS)-1-[4-((8S,11R,13S,14S,17S)-17-hydroxy-13-methyl-3-oxo-17-pentafluoroethyl-2,3,6,7,8,11,12,13,14,15,16,17-dodecahydro-1H-cyclopenta[a]phenanthren-11-yl)phenyl]ethyl ester] | > 24 | > 24 | > 24 | 0.07 | 0.08 |
| CC(OC(=O)[C@@H](C)NC(=O)OC(C)(C)C)c1ccc([C@H]2C[C@@]3(C)[C@@H](CC[C@@]3(O)C(F)(F)C(F)(F)F)[C@@H]3CCC4=CC(=O)CCC4=C32)cc1 (mixture of isomers) [Example 6, (R)-2-tert-Butoxycarbonylaminopropionic acid (RS)-1-[4-((8S,11R,13S,-14S,17S)-17-hydroxy-13-methyl-3-oxo-17-pentafluoroethyl-2,3,6,7,8,11,12,13,14,15,16,17-dodecahydro-1H-cyclopenta[a]phenanthren-11-yl)phenyl]ethyl ester] | > 24 | > 24 | > 24 | 0.1 | 0.2 |
| CC(OC(=O)[C@@H](NC(=O)OC(C)(C)C)C(C)C)c1ccc([C@H]2C[C@@]3(C)C(CC[C@@]3(O)C(F)(F)C(F)(F)F)C3CCC4=CC(=O)CCC4=C32)cc1 (mixture of isomers) [Example 5, (S)-2-tert-Butoxycarbonylamino-3-methylbutyric acid (RS)-1-[4-((8S,11R,-13S,14S,17S)-17-hydroxy-13-methyl-3-oxo-17-pentafluoroethyl-2,3,6,7,8,11,12,13,14,15,-16,17-dodecahydro-1H-cyclopenta[a]phenanthren-11-yl)phenyl]ethyl ester] | > 192 | > 192 | > 192 | 0.3 | 0.8 |
| CC(OC(=O)[C@H](C)NC(=O)OC(C)(C)C)c1ccc([C@H]2C[C@@]3(C)C(CC[C@@]3(O)C(F)(F)C(F)(F)F)C3CCC4=CC(=O)CCC4=C32)cc1 (mixture of isomers) [Example 7, (S)-2-tert-Butoxycarbonylaminopropionic acid (RS)-1-[4-((8S,11R,13S,-14S,17S)-17-hydroxy-13-methyl-3-oxo-17-pentafluoroethyl-2,3,6,7,8,11,12,13,14,15,16,17-dodecahydro-1H-cyclopenta[a]phenanthren-11-yl)phenyl]ethyl ester] | > 24 | > 24 | > 24 | 0.14 | 0.1 |

The next lines start with the values.

| half-life ([1]; pH = 1.2, 23° C.) [h] | half-life ([1]; pH = 5.0, 23° C.) [h] | half-life ([1]; pH = 8.0, 23° C.) [h] | IC50 [2] [nM] | IC50 [3] [nM] | Structure (SMILES) |
| --- | --- | --- | --- | --- | --- |
| > 24 | > 24 | > 24 | 0.21 | 0.2 | CC(C)CC(=O)OC(C)c1ccc([C@H]2C[C@@]3(C)C(CC[C@@]3(O)C(F)(F)C(F)(F)F)C3CCC4=CC(=O)CCC4=C32)cc1 (mixture of isomers) [Example 3, 3-Methylbutyric acid (RS)-1-[4-((8S,11R,13S,14S,17S)-17-hydroxy-13-methyl-3-oxo-17-pentafluoroethyl-2,3,6,7,8,11,12,13,14,15,16,17-dodecahydro-1H-cyclopenta[a]phenanthren-11-yl)phenyl]ethyl ester] |
| > 24 | > 24 | > 24 | 0.2 | 0.4 | CC(OC(=O)CC(C)(C)C)c1ccc([C@H]2C[C@@]3(C)C(CC[C@@]3(O)C(F)(F)C(F)(F)F)C3CCC4=CC(=O)CCC4=C32)cc1 (mixture of isomers) [Example 4, 3,3-Dimethylbutyric acid (RS)-1-[4-((8S,11R,13S,14S,17S)-17-hydroxy-13-methyl-3-oxo-17-pentafluoroethyl-2,3,6,7,8,11,12,13,14,15,16,17-dodecahydro-1H-cyclopenta[a]phenanthren-11-yl)phenyl]ethyl ester] |
| > 24 | > 24 | > 24 | 0.1 | 0.1 | CC(C)C(=O)OC(C)c1ccc([C@H]2C[C@@]3(C)C(CC[C@@]3(O)C(F)(F)C(F)(F)F)C3CCC4=CC(=O)CCC4=C32)cc1 (mixture of isomers) [Example 2, Isobutyric acid (RS)-1-[4-((8S,11R,13S,14S,17S)-17-hydroxy-13-methyl-3-oxo-17-pentafluoroethyl-2,3,6,7,8,11,12,13,14,15,16,17-dodecahydro-1H-cyclopenta[a]-phenanthren-11-yl)phenyl]ethyl ester] |
